A short description of series [1]: AFM analysis of self-assembled peptide complexes. To be noted: for Average diameter (nm) / AFM morphology: Table 12, self-assembled structure; for AFM morphology: 25 μM in distilled water. In kind it is physicochemical. The method, then:
AFM was performed using an NX10 system (Park Systems, Korea) in a non-contact mode with PPP-NCHR AFM probes (Nanosensors, Switzerland). The DNA concentration ranged from 1 to 30 ng/μL and the peptide concentration ranged from 1 to 32 μM (in H2O). 2 μL of the sample solution was cast onto a freshly cleaved mica surface and dried. The data obtained by the SmartScan program (Park Systems, Korea) was analyzed using the XEI program (Park Systems, Korea).
The CD spectroscopy was performed in the same manner as in Test Example 2 and the AFM was performed using the NX10 system (Park Systems, Korea) in a non-contact mode with PPP-NCHR AFM probes (Nanosensors, Switzerland). The peptide complex concentration ranged from 1 to 32 μM (in H2O). 2 μL of the sample solution was cast onto a freshly cleaved mica surface and dried. The data obtained by the SmartScan program (Park Systems, Korea) were analyzed using the XEI program (Park Systems, Korea).
The peptide complexes of Examples 37-40 were imaged by AFM. 25 μM of the peptide complex was dissolved in distilled water, sonicated for 5 minutes, incubated overnight and dropped on mica for measurement.

Series [2] in a line: CD (circular dichroism) spectroscopy of α-helix structure. Type of series: physicochemical. To be noted: for θ222 nm/θ208 nm ratio: Table 11, peptide complexes of Examples 37-97. The method, then: To evaluate the structures of a linear plasmid DNA and peptides, CD spectra were analyzed using a Chirascan CD spectrometer (Applied Photophysics, UK). […] The final concentration of the linear plasmid DNA was 30 ng/μL. All the samples were dissolved in H2O. For the formation of the artificial chromosome, a mixture of the peptide and the DNA was incubated for 12 days or longer. Scanning was performed using a 2-mm path-length cuvette. Each scan was repeated three times and averaged. MRE (mean residue ellipticity) was calculated based on the number of amino acid residues.
CD (circular dichroism) spectroscopy was performed as follows.
The CD spectra were analyzed using a Chirascan CD spectrometer (Applied Photophysics, UK). […] All the samples were dissolved in H2O. Each scan was repeated three times using a 2-mm path-length cuvette and averaged. MRE (mean residue ellipticity) was calculated based on the number of amino acid residues.
Background: Circular dichroism is the unequal absorption of left and right circularly polarised light.

Entries after “also recorded” stand apart in the source; their conditions may differ. Non-standard residues stand in square brackets, D forms with d. Primed or numbered codes have the meaning given here. No end group written: not given here. PEG8′ = not defined here; Aib = CC(C)(N)C(=O)O

On to “RGDRGDRGDAUAUAUAUAUAUAUAUAUAUAR [Example 71]”, for which, in series [1], the “Average diameter (nm)” value was 50-100 nm and the AFM morphology result is given as “Vesicle”. The “θ222 nm/θ208 nm ratio” value in series [2] worked out at 1.12.

Regarding “AUAUAUAUAUAUAUAUAUAUA(PEG8)2 [Example 54]”, in series [1], the “Average diameter (nm)” value is 20-90 nm and the AFM morphology entry is “Micelle, vesicle”. Besides, the “θ222 nm/θ208 nm ratio” value in series [2] is on record as 1.2.

As to RAUAUAUAUAUAUAUA(PEG8)2 [Example 59], in series [1], the “Average diameter (nm)” value is 160-410 nm and the AFM morphology result was “Vesicle”. In addition, in series [2], the “θ222 nm/θ208 nm ratio” value is 0.77.

As to “EEAUAUAUAUAUAUAUAUAUAUA(PEG8)2 [Example 91]”, in series [1], the “Average diameter (nm)” value was 20-30 nm and the AFM morphology entry is listed as “Micelle”. In addition, the “θ222 nm/θ208 nm ratio” value in series [2] is given as 1.18.

With (PEG8)2 AUAUAUAUA [Example 55], the AFM morphology entry in series [1] is “Not assembled”. The “θ222 nm/θ208 nm ratio” value in series [2] was 0.58.

As to “RGDRGDAUAUAUAUAUAUAUAUAUAUAR [Example 70]”, in series [1], the “Average diameter (nm)” value turned out to be 50 nm and the AFM morphology entry was “Vesicle”. In series [2], the “θ222 nm/θ208 nm ratio” value is 1.14.

For “RAUAUAUAUAUAUAUAUAUAUARGDRGDRGD [Example 64]”, in series [1], the “Average diameter (nm)” value is recorded as 30-40 nm and the AFM morphology entry is given as “Micelle”. Also, the “θ222 nm/θ208 nm ratio” value in series [2] stood at 1.1.

For the substance “Example 38: peptide complex (Wαm-RGD), SEQ ID NO 38 (L[Aib]L[Aib]L[Aib]L[Aib]LGRGDRGDG)”, the “self-assembly behavior in an aqueous solvent” value (“self-assembly behavior” below) in series [1] (AFM) is given as “spherical particles”. In series [1], the “Average diameter (nm)” value was 50-200 nm and the AFM morphology result is recorded as “Vesicle”. In series [2], the “θ222 nm/θ208 nm ratio” value is 0.44.

“EAUAUAUAUAUAUAUAUAUAUAGSGSGSGS (EA[Aib]A[Aib]A[Aib]A[Aib]A[Aib]A[Aib]A[Aib]A[Aib]A[Aib]A[Aib]AGSGSGSGS) [Example 95]”: in series [1], the “Average diameter (nm)” value is 240-280 nm and the AFM morphology entry is on record as “Vesicle”. Besides, in series [2], the “θ222 nm/θ208 nm ratio” value was 1.2.

“Example 41: peptide complex (Wαm-RGD, Wαm-GS), SEQ ID NO 41 (A[Aib]A[Aib]A[Aib]A[Aib]A[Aib]A[Aib]A[Aib]A[Aib]A[Aib]A[Aib]AGRGDRGDRGDG)”: in series [1], the “Average diameter (nm)” value is 20-40 nm and the AFM morphology result is recorded as “Micelle”. In addition, in series [2], the “θ222 nm/θ208 nm ratio” value is on record as 0.91.

With “RAUAUAUAUAUAUAUAUAUAUAGRGDRGDRGDG [Example 66]”, in series [1], the “Average diameter (nm)” value is reported as 20-30 nm and the AFM morphology result is recorded as “Micelle”. The “θ222 nm/θ208 nm ratio” value in series [2] came to 0.91.

On to “(PEG8)2 AUAUAUAUAUAUAUAUAUAUA [Example 57]”, for which, in series [1], the “Average diameter (nm)” value was 30-80 nm and the AFM morphology result is “Vesicle”. Further, the “θ222 nm/θ208 nm ratio” value in series [2] amounted to 1.22.

On to “EEEEAUAUAUAUAUAUAUAUAUAUA(PEG8)2 (EEEEAXAXAXAXAXAXAXAXAXAXA; (PEG8)2 C-terminal; SITE 6 2-aminoisobutyric acid; SITE 8 2-aminoisobutyric acid; SITE 10 2-aminoisobutyric acid; SITE 12 2-aminoisobutyric acid; SITE 14 2-aminoisobutyric acid; SITE 16 2-aminoisobutyric acid; SITE 20 2-aminoisobutyric acid; SITE 18 2-aminoisobutyric acid; SITE 22 2-aminoisobutyric acid; SITE 24 2-aminoisobutyric acid) [Example 93]”, for which, in series [1], the “Average diameter (nm)” value was 180-360 nm and the AFM morphology result is recorded as “Vesicle”. Also, in series [2], the “θ222 nm/θ208 nm ratio” value is recorded as 1.16.

Turning to “RRAUAUAUAUAUAUAUAUAUAUAGRGDRGDRGDG (RRA[Aib]A[Aib]A[Aib]A[Aib]A[Aib]A[Aib]A[Aib]A[Aib]A[Aib]A[Aib]AGRGDRGDRGDG) [Example 68]”, in series [1], the “Average diameter (nm)” value was 40-110 nm and the AFM morphology result is recorded as “Vesicle”. Also, the “θ222 nm/θ208 nm ratio” value in series [2] worked out at 0.89.

“EEEAUAUAUAUAUAUAUAUAUAUA(PEG8)2 [Example 92]”: in series [1], the “Average diameter (nm)” value was determined as 200 nm and the AFM morphology entry was “Vesicle”. In addition, the “θ222 nm/θ208 nm ratio” value in series [2] is 1.2.

For “Example 37: peptide complex (Wαm-RGD), SEQ ID NO 37 (A[Aib]A[Aib]A[Aib]A[Aib]AGRGDRGDG)”, the AFM morphology result in series [1] is on record as “Irregular vesicle”. Besides, the “θ222 nm/θ208 nm ratio” value in series [2] is reported as 0.28.

Take (PEG8)2 AUAUAUAUAUAUAUA [Example 56]: in series [1], the “Average diameter (nm)” value was 20-40 nm and the AFM morphology entry is “Micelle”. In addition, the “θ222 nm/θ208 nm ratio” value in series [2] was found to be 1.11.

Take “(PEG8)2AUAUAUAUAUAUAUAUAUAUA(PEG8)2 [Example 125]”: the “self-assembly behavior” value in series [1] (AFM) is “did not self-assemble”. Also, in series [2] (Table 14, coil-rod-coil peptide complexes), the “[θ]222/[θ]208” value came out at 1.21. In series [2] (depending on concentration), the “[θ]222/[θ]203 ratio” value is reported as 1.1-1.2.

As for “EAUAUAUAUAUAUAUAUAUAUA(PEG8)2 [Example 90]”, in series [1], the “Average diameter (nm)” value was 20-30 nm and the AFM morphology result is listed as “Micelle”. The “θ222 nm/θ208 nm ratio” value in series [2] turned out to be 1.21.

As for “RRRAUAUAUAUAUAUAUAUAUAUAGRGDRGDRGDG (RRRA[Aib]A[Aib]A[Aib]A[Aib]A[Aib]A[Aib]A[Aib]A[Aib]A[Aib]A[Aib]AGRGDRGDRGDG) [Example 69]”, in series [1], the “Average diameter (nm)” value was 40-260 nm and the AFM morphology result is reported as “Vesicle”. Further, in series [2], the “θ222 nm/θ208 nm ratio” value amounted to 0.88.

Regarding “RAUAUAUAUA(PEG8)2 (RA[Aib]A[Aib]A[Aib]A[Aib]A-{PEG8′-PEG8′-NH2}) [Example 58]”, the AFM morphology entry in series [1] was “Not assembled”. Further, the “θ222 nm/θ208 nm ratio” value in series [2] was determined as 0.36.

As to “RRAUAUAUAUAUAUAUAUAUAUA(PEG8)2 [Example 61]”, in series [1], the “Average diameter (nm)” value is on record as 90-250 nm and the AFM morphology entry is “Vesicle”. Also, in series [2], the “θ222 nm/θ208 nm ratio” value came out at 1.13.

Regarding “Example 40: peptide complex (Wαm-RGD), SEQ ID NO 40 (AXAXAXAXAXAXAXAXAXAXAGRGDRGDG; RGD peptides; SITE 2 2-aminoisobutyric acid; SITE 4 2-aminoisobutyric acid; SITE 6 2-aminoisobutyric acid; SITE 8 2-aminoisobutyric acid; SITE 10 2-aminoisobutyric acid; SITE 12 2-aminoisobutyric acid; SITE 14 2-aminoisobutyric acid; SITE 16 2-aminoisobutyric acid; SITE 18 2-aminoisobutyric acid; SITE 20 2-aminoisobutyric acid)”, in series [1] (AFM), the average diameter was determined as 20 nm and the “self-assembly behavior” value is recorded as “self-assembled into spherical particles such as micelles; also recorded: micelle particles”. Also, the “length of micelle particles” value in series [1] (AFM, FIG. 80) is listed as 7.2-12.4 nm. Also, in series [1], the “Average diameter (nm)” value is reported as 20-30 nm and the AFM morphology entry is listed as “Micelle”. Further, the “θ222 nm/θ208 nm ratio” value in series [2] was 0.99. Moreover, the “α-helix structure (in words)” value in series [2] (from CD spectra) is listed as “most perfect α-helix structure”.

For the substance AUAUAUAUA(PEG8)2 [Example 52], in series [1], the AFM morphology entry is reported as “Not assembled”. The “θ222 nm/θ208 nm ratio” value in series [2] was found to be 0.54.

For the substance AUAUAUAUAUAUAUA(PEG8)2 [Example 53], in series [1], the “Average diameter (nm)” value was 20-30 nm and the AFM morphology result was “Micelle”. Further, in series [2], the “θ222 nm/θ208 nm ratio” value came out at 1.11.

Values taken from patent publication US20240424134A1, “PEPTIDE HAVING INDEPENDENTLY STABILIZED HYDROPHOBIC ALPHA HELIX, PEPTIDE COMPLEX COMPRISING SAME AND USES THEREOF” (UIF (University Industry Foundation), Yonsei University, priority 2022, published 2024).
